Test results: PubChem BioAssay AID2060503 (Molecular Pharmacology Branch, DTP, NCI, 2025)
“And” between values parts separate entries of the source, which are not always exact repeats. Equal values may be shown once.

Test system: 817829-284-R-J1-PDC complex spheroids, viability
Assay: Anticancer human tumor 817829-284-R-J1-PDC patient-derived colon adenocarcinoma cell line growth inhibition [GQUAD]
Conditions: for viability, T/C: stronger effect = lower value
Excerpt: DNA G-quadruplex Stabilizer Agents in Combinations in Complex Spheroids
A high-throughput screen of multi-cell type tumor spheroids was designed to identify active combinations of DNA G-quadruplex stabilizer agents and targeted small molecules. Complex spheroids include a stromal component modeled by human endothelial cells (HUVEC) and fibroblasts modeled by human mesenchymal stem cells (MSCs). The concentration ranges selected for each drug and investigational agent were based upon clinically achievable concentrations if the clinical Cmax of the agent was known.
Compounds. The drugs and investigational agents: pidnarulex (CX-5461; NSC782164), APTO-253 (NSC789042), BRACO-19 (NSC847499), peposertib (NSC802822), ceralasertib (NSC780249), elimusertib (NSC800525), camonsertib (NSC841442), AZD-1390 (NSC803789), olaparib (NSC753686), talazoparib (NSC767125), ART-558 (NSC835418), sotorasib (NSC818433), MRTX-1133 (NSC836407), SN-38 (NSC673596), topotecan (NSC609699), etoposide (NSC141540), doxorubicin (NSC123127), gemcitabine (NSC613327), 5-fluorouracil (NSC19893), paclitaxel (NSC125973), vemurafenib (NSC761431), panobinostat (NSC761190), R-306465 (JNJ-16241199; NSC773264), adavosertib (NSC754352), TP-3654 (NSC805149), carboplatin (NSC241240), KSQ-4279 (NSC840948), and staurosporine (NSC755774) were obtained from the National Cancer Institute (NCI) Developmental Therapeutics Program Chemical Repository (34). The FDA-approved anticancer drug set is available from the NCI Developmental Therapeutics Program. […] The stock solutions were prepared in dimethyl sulfoxide (DMSO, Sigma-Aldrich, St. Louis, MO, cat. D2650) at 800-fold the tested concentration and stored at -70 degrees C prior to their use. All drugs and investigational agents were tested over a range starting from a high concentration at or near the clinical Cmax and decreasing in half-log increments. If the clinical Cmax for an agent had not been determined, the highest concentration tested was 10 microM.
2.3 Cell Culture. All cells were maintained in an incubator at 37 degrees C and 5% CO2 with 95% humidity. The PDC lines were cultured according to standard operating procedures established by the NCI PDMR. All PDCs were thawed and cultured in Matrigel-coated flasks prepared with a working solution of 1X Ham's F-12 nutrient mix, without supplementation (Invitrogen, cat. 11765054), 100 U/mL penicillin-streptomycin (Invitrogen, cat. 15140122), and 2.5% Matrigel (Corning Inc., cat. 354248) for the first three passages. The 857933-349-R-J2-PDC line was cultured in 6C/Colon 1B media, which includes advanced DMEM/F-12 (Thermo Fisher Scientific, cat. 12634028), 10 mM HEPES (Thermo Fisher Scientific, cat. 15630080), 1X GlutaMAX supplement (Thermo Fisher Scientific, cat. 35050061), 0.1 mg/mL primocin (InvivoGen, cat. ant-pm-2), 10% defined fetal bovine serum, heat inactivated (HyClone Laboratories Inc., cat. SH30070.03HI), 50% L-WRN conditioned media (ATCC, cat. CRL-3276), 1.25 mM N-Acetyl-L-cysteine (Sigma-Aldrich, cat. A9165), 10 mM nicotinamide (Sigma-Aldrich, cat. N0636), 1X B-27 supplement (Thermo Fisher Scientific, cat. 17504044), 1X N-2 supplement (Thermo Fisher Scientific, cat. 17502048), 10 microM Y-27632 dihydrochloride (Tocris Bioscience, cat. 1254), and 50 ng/mL human EGF recombinant protein (Thermo Fisher Scientific, cat. PHG0311). The 485176-168-R4-J1-PDC line was cultured in Panc media, which includes all 6C/Colon 1B media components plus 100 ng/mL human FGF-10 (Thermo Fisher Scientific, cat. 100-26), 500 nM SB-431542 (Selleckchem, cat. S1067), and gastrin (Tocris, cat. 3006).
[…]
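Further: spheroids exposed to agents for 7 days before readout.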
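Wherever viability, T/C is given: percent viability relative to DMSO vehicle control taken as 100%.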

## C=CC(=O)N1CCN(c2nc(=O)n(-c3c(C)ccnc3C(C)C)c3nc(-c4c(O)cccc4F)c(F)cc23)C(C)C1 (configuration not stated)
Compound 0.0316 µM
  viability, T/C: 94.6% and 98.7% and 113%
Compound 0.1 µM
  viability, T/C: 87.2% and 97.6% and 96.2%
Compound 0.316 µM
  viability, T/C: 96% and 99.3% and 113%
Compound 1 µM
  viability, T/C: 84.4% and 93.2% and 89.2%
Compound 3.16 µM
  viability, T/C: 108% and 102% and 112%
Compound 10 µM
  viability, T/C: 98.3% and 81.2% and 102%
Curve of compound
  IC50: > 10000 nM

## CC1COCCN1c1cc(C2(S(C)(=N)=O)CC2)nc(-c2ccnc3[nH]ccc23)n1 (configuration not stated) + Cc1cnc(CNC(=O)c2c(=O)c3ccc(N4CCCN(C)CC4)nc3n3c2sc2ccccc23)cn1
Curve of first compound, second compound 0.0316 µM
  IC50: 200 nM
Curve of first compound, second compound 0.1 µM
  IC50: < 31.6 nM
Curve of first compound, second compound 0.316 µM
  IC50: < 31.6 nM
Curve of first compound, second compound 1 µM
  IC50: < 31.6 nM
Curve of first compound, second compound 3.16 µM
  IC50: < 31.6 nM
Curve of first compound, second compound 10 µM
  IC50: < 31.6 nM
Second compound 0.0316 µM, first compound 0.0316 µM
  viability, T/C: 82.8%
Second compound 0.0316 µM, first compound 0.1 µM
  viability, T/C: 71.1%
Second compound 0.0316 µM, first compound 0.316 µM
  viability, T/C: 36.1%
Second compound 0.0316 µM, first compound 1 µM
  viability, T/C: 15.2%
Second compound 0.0316 µM, first compound 3.16 µM
  viability, T/C: 12.5%
Second compound 0.0316 µM, first compound 10 µM
  viability, T/C: 10.4%
Second compound 0.1 µM, first compound 0.0316 µM
  viability, T/C: 47.3%
Second compound 0.1 µM, first compound 0.1 µM
  viability, T/C: 37.9%
Second compound 0.1 µM, first compound 0.316 µM
  viability, T/C: 24.1%
Second compound 0.1 µM, first compound 1 µM
  viability, T/C: 14.4%
Second compound 0.1 µM, first compound 3.16 µM
  viability, T/C: 11.4%
Second compound 0.1 µM, first compound 10 µM
  viability, T/C: 8.15%
Second compound 0.316 µM, first compound 0.0316 µM
  viability, T/C: 29.1%
Second compound 0.316 µM, first compound 0.1 µM
  viability, T/C: 29.6%
Second compound 0.316 µM, first compound 0.316 µM
  viability, T/C: 22.2%
Second compound 0.316 µM, first compound 1 µM
  viability, T/C: 16.5%
Second compound 0.316 µM, first compound 3.16 µM
  viability, T/C: 12.6%
Second compound 0.316 µM, first compound 10 µM
  viability, T/C: 9.19%
Second compound 1 µM, first compound 0.0316 µM
  viability, T/C: 29.2%
Second compound 1 µM, first compound 0.1 µM
  viability, T/C: 27.2%
Second compound 1 µM, first compound 0.316 µM
  viability, T/C: 21.3%
Second compound 1 µM, first compound 1 µM
  viability, T/C: 17.1%
Second compound 1 µM, first compound 3.16 µM
  viability, T/C: 10.8%
Second compound 1 µM, first compound 10 µM
  viability, T/C: 8.91%
Second compound 3.16 µM, first compound 0.0316 µM
  viability, T/C: 21.5%
Second compound 3.16 µM, first compound 0.1 µM
  viability, T/C: 23.8%
Second compound 3.16 µM, first compound 0.316 µM
  viability, T/C: 22.3%
Second compound 3.16 µM, first compound 1 µM
  viability, T/C: 15.2%
Second compound 3.16 µM, first compound 3.16 µM
  viability, T/C: 12.8%
Second compound 3.16 µM, first compound 10 µM
  viability, T/C: 8.2%
Second compound 10 µM, first compound 0.0316 µM
  viability, T/C: 0.17%
Second compound 10 µM, first compound 0.1 µM
  viability, T/C: 0.16%
Second compound 10 µM, first compound 0.316 µM
  viability, T/C: 0.21%
Second compound 10 µM, first compound 1 µM
  viability, T/C: 0.24%
Second compound 10 µM, first compound 3.16 µM
  viability, T/C: 0.23%
Second compound 10 µM, first compound 10 µM
  viability, T/C: 0.24%

## COc1cc(C2c3cc4c(cc3C(OC3OC5COC(C)OC5C(O)C3O)C3COC(=O)C23)OCO4)cc(OC)c1O (configuration not stated)
Compound 0.0316 µM
  viability, T/C: 115% and 98.4% and 91%
Compound 0.1 µM
  viability, T/C: 62% and 67.7% and 92.4%
Compound 0.316 µM
  viability, T/C: 29.3% and 26.7% and 34.1%
Compound 1 µM
  viability, T/C: 26.2% and 28.1% and 42.2%
Compound 3.16 µM
  viability, T/C: 22.6% and 26.7% and 29.9%
Compound 10 µM
  viability, T/C: 10.5% and 9.2% and 10.2%
Curve of compound
  IC50: 159 nM and 166 nM and 230 nM

## CCCS(=O)(=O)Nc1ccc(F)c(C(=O)c2c[nH]c3ncc(-c4ccc(Cl)cc4)cc23)c1F
Compound 0.0316 µM
  viability, T/C: 117% and 113% and 109%
Compound 0.1 µM
  viability, T/C: 106% and 102% and 81.6%
Compound 0.316 µM
  viability, T/C: 110% and 103% (2×)
Compound 1 µM
  viability, T/C: 92.1% and 92.8% and 79.2%
Compound 3.16 µM
  viability, T/C: 75.5% and 88.9% and 75.2%
Compound 10 µM
  viability, T/C: 21% and 22% and 16.1%
Curve of compound
  IC50: 5280 nM and 6050 nM and 4910 nM

## Cn1ncnc1[C@H]1c2n[nH]c(=O)c3cc(F)cc(c23)N[C@@H]1c1ccc(F)cc1
Compound 0.000999 µM
  viability, T/C: 111% and 90.3% and 92.1%
Compound 0.00316 µM
  viability, T/C: 86.5% and 83.5% and 92.8%
Compound 0.00999 µM
  viability, T/C: 106% and 112% and 101%
Compound 0.0316 µM
  viability, T/C: 91.3% and 82.8% and 82%
Compound 0.0999 µM
  viability, T/C: 83.5% and 82.1% and 84%
Compound 0.316 µM
  viability, T/C: 72.2% and 75.2% and 66.5%
Curve of compound
  IC50: > 316 nM

## CC1COCCN1c1cc(C2(O)CC3CCC(C2)O3)c2cnn(-c3ccn[nH]3)c2n1 (configuration not stated)
Compound 0.0316 µM
  viability, T/C: 39.5% and 42.2% and 31.3%
Compound 0.1 µM
  viability, T/C: 10.2% and 9.96% and 13.3%
Compound 0.316 µM
  viability, T/C: 7.94% and 8.95%
Compound 1 µM
  viability, T/C: 6.19% and 4.8% and 7.29%
Compound 3.16 µM
  viability, T/C: 5.19% and 5.01% and 5.9%
Compound 10 µM
  viability, T/C: 2.86% and 3.51% and 4.63%
Curve of compound
  IC50: < 31.6 nM
